According to US8999974B2, “Acyl piperazine derivatives as TTX-S blockers” (Raqualia Pharma Inc., priority 2010, dated 2015):

What was measured:
[1] = biological target: T1, human Nav1.7 (Homo sapiens, UniProt Q15858); experiment: FRET assay (EFS, FDSS) on CHO cells expressing human NaV1.7 channels; assay type: cell-based; conditions: FRET assay, CHO cells expressing human NaV1.7; read-out: IC50 against Nav1.7
T1 construct: expressed in transfected cells; host or cells: CHO
Protocol: This screen was used to determine the effects of compounds on human NaV1.3, human Nav1.7, and human Nav1.5 channels, utilising electrical field stimulation (EFS) system in 96-well plate format on FDSS (Hamamatsu Photonics) platform. The change of membrane potential was monitored with FRET dye pair, oxonol (DiSBAC2(3)) and coumarin (CC2-DMPE).
CHO cells expressing human NaV1.7 channels were grown in T225 flasks, in a 5% CO2 humidified incubator to about 80% confluence. Media composition consisted of HAM/F12 with Glutamax I, 10% FCS, 100 units/ml Penicillin and 100 microgram/ml Hygromycin.
Protocol: • Seeded each cell lines (1×10^5 cells/well) into poly-D-lysine coated 96-well plates prior to experimentation. • Incubated at 37° C. in 5% CO2 for 24 hours. • Washed each well with assay buffer (140 mM NaCl, 4.5 mM KCl, 10 mM D-Glucose, 2 mM CaCl2, 1 mM MgCl2, 10 mM HEPES, pH 7.4 adjusted with NaOH) twice. • Added 1st loading solution containing 10 microM CC2-DMPE and 0.06% Pluronic F-127 in assay buffer. • Incubated the plate at room temperature in dark for 1 hour. • Removed 1st loading solution and added 2nd loading solution containing 15 microM DiSBAC2(3), 0.555 mM VABSC-1 and 0.004% Pluronic F-127 in assay buffer. • Placed the plate under the dark at room temperature for 25 minutes. • Added compound solutions into the assay plate. • Set the assay plate in FDSS and placed an EFS device on the plate. • Measured EFS-induced fluorescent response by FDSS.
The data were analyzed and reported as normalized ratios of intensities measured at […]. The process of calculating these ratios was performed as follows:
[formula] This analysis was performed using a computerized specific program designed for FDSS generated data. Fluorescence ratio values were plotted using XLfit to determine an IC50 value for each compound.

[2] = biological target: T2, human NaV1.3 (Homo sapiens, UniProt Q9NY46); experiment: FRET assay (EFS, FDSS) on HEK293 cells expressing human NaV1.3 channels; assay type: cell-based; conditions: FRET assay, HEK293 cells expressing human NaV1.3; read-out: IC50 against Nav1.3
T2 construct: expressed in transfected cells; host or cells: HEK293
T2 sequence (Q9NY46 whole entry): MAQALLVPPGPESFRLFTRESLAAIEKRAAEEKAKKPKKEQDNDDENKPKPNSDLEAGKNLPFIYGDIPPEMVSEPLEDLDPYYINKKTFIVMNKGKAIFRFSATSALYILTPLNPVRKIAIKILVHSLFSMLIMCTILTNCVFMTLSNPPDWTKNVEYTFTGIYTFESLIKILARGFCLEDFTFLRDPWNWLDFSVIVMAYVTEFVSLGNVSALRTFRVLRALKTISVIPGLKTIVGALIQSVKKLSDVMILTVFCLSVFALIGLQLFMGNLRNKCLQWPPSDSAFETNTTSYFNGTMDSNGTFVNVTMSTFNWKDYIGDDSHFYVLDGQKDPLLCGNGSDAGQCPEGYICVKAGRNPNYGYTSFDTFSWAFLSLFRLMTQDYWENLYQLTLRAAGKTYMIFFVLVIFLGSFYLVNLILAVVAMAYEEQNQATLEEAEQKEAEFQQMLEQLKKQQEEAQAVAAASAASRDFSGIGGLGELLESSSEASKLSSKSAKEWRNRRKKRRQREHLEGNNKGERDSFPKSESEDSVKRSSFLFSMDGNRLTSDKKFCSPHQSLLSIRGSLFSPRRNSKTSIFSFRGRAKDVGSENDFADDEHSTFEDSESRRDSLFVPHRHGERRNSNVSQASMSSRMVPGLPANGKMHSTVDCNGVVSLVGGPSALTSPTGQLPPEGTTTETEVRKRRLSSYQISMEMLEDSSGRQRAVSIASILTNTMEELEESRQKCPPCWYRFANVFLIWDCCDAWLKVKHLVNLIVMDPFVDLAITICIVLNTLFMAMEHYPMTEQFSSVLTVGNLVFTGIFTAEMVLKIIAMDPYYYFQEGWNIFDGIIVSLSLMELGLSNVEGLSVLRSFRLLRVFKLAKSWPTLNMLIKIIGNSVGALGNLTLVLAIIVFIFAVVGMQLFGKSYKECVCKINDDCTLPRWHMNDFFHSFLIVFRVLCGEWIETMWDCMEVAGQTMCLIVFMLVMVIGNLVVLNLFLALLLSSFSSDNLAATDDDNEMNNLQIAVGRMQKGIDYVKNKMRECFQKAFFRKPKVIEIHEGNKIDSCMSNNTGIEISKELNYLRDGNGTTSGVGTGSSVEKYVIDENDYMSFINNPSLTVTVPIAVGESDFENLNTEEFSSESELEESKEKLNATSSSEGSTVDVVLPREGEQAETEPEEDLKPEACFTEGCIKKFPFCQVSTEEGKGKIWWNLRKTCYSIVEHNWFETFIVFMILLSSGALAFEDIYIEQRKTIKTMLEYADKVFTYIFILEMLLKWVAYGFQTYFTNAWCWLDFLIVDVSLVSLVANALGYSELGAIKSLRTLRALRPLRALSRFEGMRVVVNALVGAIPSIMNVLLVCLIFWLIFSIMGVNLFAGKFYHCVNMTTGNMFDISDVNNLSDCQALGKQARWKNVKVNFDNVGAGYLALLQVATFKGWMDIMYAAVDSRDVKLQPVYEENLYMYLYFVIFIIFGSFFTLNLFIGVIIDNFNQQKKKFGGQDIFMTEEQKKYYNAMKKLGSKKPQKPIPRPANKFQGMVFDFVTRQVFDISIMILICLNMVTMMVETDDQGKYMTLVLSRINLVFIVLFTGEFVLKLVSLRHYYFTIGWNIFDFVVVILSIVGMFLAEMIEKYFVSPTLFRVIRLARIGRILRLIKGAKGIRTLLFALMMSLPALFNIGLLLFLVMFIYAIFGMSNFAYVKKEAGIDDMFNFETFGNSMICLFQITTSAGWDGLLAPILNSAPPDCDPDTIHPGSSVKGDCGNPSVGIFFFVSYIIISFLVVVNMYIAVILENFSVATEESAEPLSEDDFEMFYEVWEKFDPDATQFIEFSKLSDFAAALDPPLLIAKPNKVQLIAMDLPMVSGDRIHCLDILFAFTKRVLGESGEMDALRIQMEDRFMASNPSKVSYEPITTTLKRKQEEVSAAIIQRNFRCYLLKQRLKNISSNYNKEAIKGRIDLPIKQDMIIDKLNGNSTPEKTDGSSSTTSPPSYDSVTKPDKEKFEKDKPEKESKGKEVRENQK
In short: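 Membrane potential in HEK293 cells stably expressing human NaV1.3, read by FRET (CC2-DMPE 10 µM / DiSBAC2(3) 15 µM with 0.555 mM VABSC-1) after electrical field stimulation, in HEPES-buffered saline pH 7.4. Compounds added after dye loading at room temperature. IC50 from normalized 440 nm fluorescence ratios.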

T1 sequence (Q15858 whole entry): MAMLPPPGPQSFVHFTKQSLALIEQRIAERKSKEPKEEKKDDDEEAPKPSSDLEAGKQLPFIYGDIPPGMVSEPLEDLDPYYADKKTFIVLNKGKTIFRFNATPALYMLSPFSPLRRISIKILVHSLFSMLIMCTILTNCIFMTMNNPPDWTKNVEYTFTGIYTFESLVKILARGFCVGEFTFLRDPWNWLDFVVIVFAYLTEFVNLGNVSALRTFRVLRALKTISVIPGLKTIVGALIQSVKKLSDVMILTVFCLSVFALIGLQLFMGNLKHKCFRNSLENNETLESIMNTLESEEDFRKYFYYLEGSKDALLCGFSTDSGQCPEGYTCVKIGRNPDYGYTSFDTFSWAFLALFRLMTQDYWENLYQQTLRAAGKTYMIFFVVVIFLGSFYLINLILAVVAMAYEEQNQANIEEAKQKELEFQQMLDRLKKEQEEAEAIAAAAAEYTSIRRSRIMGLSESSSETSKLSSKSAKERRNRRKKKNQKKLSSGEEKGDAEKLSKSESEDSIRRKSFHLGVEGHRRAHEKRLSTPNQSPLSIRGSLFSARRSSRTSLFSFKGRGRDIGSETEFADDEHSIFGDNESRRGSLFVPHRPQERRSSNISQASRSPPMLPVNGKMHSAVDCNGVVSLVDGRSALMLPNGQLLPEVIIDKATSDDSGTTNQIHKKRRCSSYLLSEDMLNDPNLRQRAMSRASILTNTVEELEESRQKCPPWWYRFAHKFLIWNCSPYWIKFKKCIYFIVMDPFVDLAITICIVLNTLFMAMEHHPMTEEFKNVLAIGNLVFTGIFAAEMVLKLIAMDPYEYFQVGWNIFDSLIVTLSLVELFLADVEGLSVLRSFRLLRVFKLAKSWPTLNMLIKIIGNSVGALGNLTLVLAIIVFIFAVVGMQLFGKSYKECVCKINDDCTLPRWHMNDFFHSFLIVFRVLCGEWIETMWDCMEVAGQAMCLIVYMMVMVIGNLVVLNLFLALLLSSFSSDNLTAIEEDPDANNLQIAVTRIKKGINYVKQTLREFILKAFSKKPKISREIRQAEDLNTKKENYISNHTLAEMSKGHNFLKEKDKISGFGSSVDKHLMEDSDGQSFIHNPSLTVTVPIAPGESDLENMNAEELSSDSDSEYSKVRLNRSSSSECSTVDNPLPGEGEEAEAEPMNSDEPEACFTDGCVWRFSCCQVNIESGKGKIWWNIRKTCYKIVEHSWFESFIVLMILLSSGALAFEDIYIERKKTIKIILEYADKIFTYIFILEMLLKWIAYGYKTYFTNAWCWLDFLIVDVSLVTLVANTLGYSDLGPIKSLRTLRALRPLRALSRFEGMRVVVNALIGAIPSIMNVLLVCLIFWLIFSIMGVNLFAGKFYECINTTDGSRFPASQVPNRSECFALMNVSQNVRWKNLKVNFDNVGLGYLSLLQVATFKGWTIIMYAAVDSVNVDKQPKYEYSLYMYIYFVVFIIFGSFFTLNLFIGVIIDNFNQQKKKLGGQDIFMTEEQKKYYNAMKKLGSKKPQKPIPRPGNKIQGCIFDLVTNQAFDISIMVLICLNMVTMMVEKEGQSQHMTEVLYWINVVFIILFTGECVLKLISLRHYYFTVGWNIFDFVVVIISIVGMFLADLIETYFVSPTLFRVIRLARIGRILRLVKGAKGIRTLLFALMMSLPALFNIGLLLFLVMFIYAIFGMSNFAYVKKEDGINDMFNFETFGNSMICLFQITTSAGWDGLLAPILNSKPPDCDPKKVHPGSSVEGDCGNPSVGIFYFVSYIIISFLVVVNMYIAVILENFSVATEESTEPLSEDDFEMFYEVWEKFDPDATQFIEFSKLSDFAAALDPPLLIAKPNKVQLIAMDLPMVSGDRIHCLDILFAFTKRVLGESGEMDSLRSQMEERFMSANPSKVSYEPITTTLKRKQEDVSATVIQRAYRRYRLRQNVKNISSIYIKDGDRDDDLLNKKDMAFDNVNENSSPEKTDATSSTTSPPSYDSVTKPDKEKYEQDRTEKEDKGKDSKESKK

Row | SMILES | IC50 [1] | IC50 [2]
1 | CC(C)COc1cc(N2CCN(C(=O)c3cc(-c4ccccc4)n(C)n3)CC2)ncn1 [Example 133, (4-(6-isobutoxypyrimidin-4-yl)piperazin-1-yl)(1-methyl-5-phenyl-1H-pyrazol-3-yl)methanone] | < 3 µM | < 3 µM
2 | O=C(CCOc1ccc(F)cc1)N1CCN(c2cc(OCC(F)(F)F)ncn2)CC1 [Example 139, 3-(4-fluorophenoxy)-1-(4-(6-(2,2,2-trifluoroethoxy)pyrimidin-4-yl)piperazin-1-yl)propan-1-one] | < 3 µM | < 3 µM
3 | CC(C)COc1cc(N2CCN(C(=O)COc3cccc4c3ccn4C)CC2)ncn1 [Example 141, 1-(4-(6-isobutoxypyrimidin-4-yl)piperazin-1-yl)-2-((1-methyl-1H-indol-4-yl)oxy)ethanone] | < 3 µM | < 3 µM
4 | CC(C)COc1cc(N2CCN(C(=O)COc3cccc(OC(F)(F)F)c3)CC2)ncn1 [Example 145, 1-(4-(6-isobutoxypyrimidin-4-yl)piperazin-1-yl)-2-(3-(trifluoromethoxy)phenoxy)ethanone] | < 3 µM | < 3 µM
5 | O=C(Cn1nc2ccccc2n1)N1CCN(c2cc(OCC(F)(F)F)ncn2)CC1 [Example 146, 2-(2H-benzo[d][1,2,3]triazol-2-yl)-1-(4-(6-(2,2,2-trifluoroethoxy)pyrimidin-4-yl)piperazin-1-yl)ethanone] | < 3 µM | < 3 µM
6 | CC(C)Oc1cc(N2CCN(C(=O)c3csc(-c4ccccc4)n3)CC2)ncn1 [Example 165, (4-(6-isopropoxypyrimidin-4-yl)piperazin-1-yl)(2-phenylthiazol-4-yl)methanone] | < 3 µM | < 3 µM
7 | CC(C)COc1cc(N2CCN(C(=O)c3csc(Cc4ccccc4)n3)CC2)ncn1 [Example 167, (2-benzylthiazol-4-yl)(4-(6-isobutoxypyrimidin-4-yl)piperazin-1-yl)methanone] | < 3 µM | < 3 µM
8 | CC(C)COc1cc(N2CCN(C(=O)COCc3ccc(F)cc3)CC2)ncn1 [Example 168, 2-((4-fluorobenzyl)oxy)-1-(4-(6-isobutoxypyrimidin-4-yl)piperazin-1-yl)ethanone] | < 3 µM | < 3 µM
9 | Cc1c(C(=O)N2CCN(c3cc(OCC(C)C)ncn3)CC2)cnn1-c1ccc(F)cc1 [Example 169, (1-(4-fluorophenyl)-5-methyl-1H-pyrazol-4-yl)(4-(6-isobutoxypyrimidin-4-yl)piperazin-1-yl)methanone] | < 3 µM | < 3 µM
10 | Cc1nc(-c2cccc(C(=O)N3CCN(c4cc(OCC(C)C)ncn4)CC3)c2)cs1 [Example 187, (4-(6-isobutoxypyrimidin-4-yl)piperazin-1-yl)(3-(2-methylthiazol-4-yl)phenyl)methanone] | < 3 µM | < 3 µM
11 | Cc1nc(-c2ccccc2)oc1C(=O)N1CCN(c2cc(OCC(C)C)ncn2)CC1 [Example 208, (4-(6-isobutoxypyrimidin-4-yl)piperazin-1-yl)(4-methyl-2-phenyloxazol-5-yl)methanone] | < 3 µM | < 3 µM
12 | Cn1nc(C(=O)N2CCN(c3cc(OCC(F)(F)F)ncn3)CC2)c2cc(F)ccc21 [Example 212, (5-fluoro-1-methyl-1H-indazol-3-yl)(4-(6-(2,2,2-trifluoroethoxy)pyrimidin-4-yl)piperazin-1-yl)methanone] | < 3 µM | < 3 µM
13 | CC(C)COc1cc(N2CCN(C(=O)c3csc(-c4ccccc4)n3)CC2)ncn1 [Example 213, (4-(6-isobutoxypyrimidin-4-yl)piperazin-1-yl)(2-phenylthiazol-4-yl)methanone] | < 3 µM | < 3 µM
14 | CCn1nc(C(=O)N2CCN(c3cc(OCC(F)(F)F)ncn3)CC2)cc1C(F)(F)F [Example 229, (1-ethyl-5-(trifluoromethyl)-1H-pyrazol-3-yl)(4-(6-(2,2,2-trifluoroethoxy)pyrimidin-4-yl)piperazin-1-yl)methanone] | < 3 µM | < 3 µM
15 | O=C(c1csc(-c2ccccn2)n1)N1CCN(c2cc(OCC(F)(F)F)ncn2)CC1 [Example 244, (2-(pyridin-2-yl)thiazol-4-yl)(4-(6-(2,2,2-trifluoroethoxy)pyrimidin-4-yl)piperazin-1-yl)methanone] | < 3 µM | < 3 µM
